Numbers after ± are expanded uncertainties.
Assay: excess molar enthalpy (molar enthalpy of mixing); xn = mol fraction of the nth substance listed
Conditions: 303.15 K, 101 kPa, Liquid, Calvet calorimetry

Row | SMILES | excess molar enthalpy (x1 = 0.2481) [kcal/mol] | excess molar enthalpy (x1 = 0.5) [kcal/mol] | excess molar enthalpy (x1 = 0.7576) [kcal/mol] | excess molar enthalpy (x2 = 0.247) [kcal/mol] | excess molar enthalpy (x2 = 0.4944) [kcal/mol] | excess molar enthalpy (x2 = 0.7685) [kcal/mol]
1 | c1ccccc1 [benzene] + CCCCCCC | 0.145 ± 0.00167 | 0.221 ± 0.00239 | 0.186 ± 0.0021 |  |  | 
2 | c1ccccc1 [benzene] + Cc1ccccc1 |  |  |  | 0.013 ± 0.000359 | 0.017 ± 0.000406 | 0.0114 ± 0.000359

— the NIST ThermoML archive (doi:10.1016/j.tca.2013.01.028)
